According to US11000033B2, “Ketone or oxime compound, and herbicide” (NISSAN CHEMICAL CORPORATION, priority 2014, dated 2021):

Tests used:
Assay type in all cases: in vivo
Stellaria media = test: Test Example 5: herbicidal effect by foliage application, plastic box (symbol P); conditions: 320 g/ha, 3 weeks after application
Procedure, shortened: (§1)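 Visual herbicidal score, taken three weeks post-application, of seedlings sprayed on the foliage with water-diluted emulsion at a predetermined amount; plants were 14 days old, greenhouse-raised at 25° C. to 30° C.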

Digitaria ciliaris [1] = test: Test Example 5: herbicidal effect by foliage application, plastic box (symbol F); conditions: 320 g/ha, 3 weeks after application
Procedure, shortened: as §1

Alopecurus myosuroides = test: Test Example 5: herbicidal effect by foliage application, plastic box (symbol J); conditions: 320 g/ha, 3 weeks after application
Procedure, shortened: as §1

Amaranthus retroflexus = test: Test Example 4: herbicidal effect by soil treatment (symbol N); conditions: application herbicide amount 320 g/ha
Procedure, shortened: (§2)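 Seeds were sown in sterilized diluvial soil, covered with about 1.5 cm of soil, and the soil surface was sprayed with a water-diluted emulsion of the compound at a predetermined rate. Plants grew in a greenhouse at 25° C. to 30° C.; effects were scored visually 3 weeks after application.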

wheat = test: Test Example 4: effect on crop by soil treatment (symbol e); conditions: application herbicide amount 320 g/ha
Procedure, shortened: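 Greenhouse culture at 25° C. to 30° C. followed sowing of seed in spots on sterilized diluvial soil with a soil cover close to 1.5 cm thick.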

Lolium multiflorum Lam. [2] = test: Test Example 5: herbicidal effect by foliage application, plastic box (symbol K); conditions: 320 g/ha, 3 weeks after application
Procedure, shortened: as §1

Veronica persica = test: Test Example 4: herbicidal effect by soil treatment (symbol R); conditions: application herbicide amount 320 g/ha
Procedure, shortened: as §2

Digitaria ciliaris [3] = test: Test Example 4: herbicidal effect by soil treatment (symbol F); conditions: application herbicide amount 320 g/ha
Procedure, shortened: as §2

Lolium multiflorum Lam. [4] = test: Test Example 4: herbicidal effect by soil treatment (symbol K); conditions: application herbicide amount 320 g/ha
Procedure, shortened: as §2

Chenopodium album [5] = test: Test Example 4: herbicidal effect by soil treatment (symbol O); conditions: application herbicide amount 320 g/ha
Procedure, shortened: as §2

Abutilon theophrasti = test: Test Example 5: herbicidal effect by foliage application, plastic box (symbol M); conditions: 320 g/ha, 3 weeks after application
Procedure, shortened: as §1

transplanted rice plant = test: Test Example 1: effect on crop, application before weed generation in submerged conditions (symbol a); conditions: application herbicide amount 320 g/ha
Procedure, shortened: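 Alluvial soil pots flooded to 4 cm water, sown with Echinochloa oryzacola, Scirpus juncoides and Monochoria vaginalis, then transplanted with 2.5 leaf stage rice seedlings; pre-emergence application. Greenhouse 25° C. to 30° C.; scored 0–5 by herbicidal ratio 3 weeks after application.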

Galium spurium = test: Test Example 4: herbicidal effect by soil treatment (symbol Q); conditions: application herbicide amount 320 g/ha
Procedure, shortened: as §2

Chenopodium album [6] = test: Test Example 5: herbicidal effect by foliage application, plastic box (symbol O); conditions: 320 g/ha, 3 weeks after application
Procedure, shortened: as §1

[7] = system: Echinochloa crus-galli var. crus-galli; test: Test Example 3: herbicidal effect by foliage application, Wagner pot (symbol H); conditions: application herbicide amount 320 g/ha
Procedure, shortened: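 Herbicidal activity was rated three weeks after a foliar spray of diluted emulsion concentrate, applied at a predetermined dose to plants grown for 14 days from seed in waterlogged alluvial soil within a 25–30 °C greenhouse.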

[8] = system: directly sowed rice plant; test: Test Example 3: effect on crop by foliage application, Wagner pot (symbol b); conditions: application herbicide amount 320 g/ha
Procedure, shortened: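 Wagner pot (1/10000 are), alluvial soil, submerged 0.1–0.5 cm; sown E. crus-galli var. crus-galli, L. chinensis, C. difformis, rice; greenhouse 25–30 °C.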

Setaria viridis = test: Test Example 4: herbicidal effect by soil treatment (symbol G); conditions: application herbicide amount 320 g/ha
Procedure, shortened: as §2

beet = test: Test Example 5: effect on crop by foliage application, plastic box (symbol f); conditions: 320 g/ha, 3 weeks after application
Procedure, shortened: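 Soil: sterilized diluvial. Container: plastic box, 21 × 13 cm, 7 cm deep. Sowing: spot-like, ~1.5 cm cover. Growth: greenhouse, 25° C. to 30° C.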

Row | Compound | P: Stellaria media, herbicidal effect (criteria of Test Example 1) (Stellaria media) | F: Digitaria ciliaris, herbicidal effect (criteria of Test Example 1) (Digitaria ciliaris [1]) | J: Alopecurus myosuroides, herbicidal effect (criteria of Test Example 1) (Alopecurus myosuroides) | N: Amaranthus retroflexus, herbicidal effect grade (Amaranthus retroflexus) | e: wheat, effect on crop grade (wheat) | K: Lolium multiflorum Lam., herbicidal effect (criteria of Test Example 1) (Lolium multiflorum Lam. [2]) | R: Veronica persica, herbicidal effect grade (Veronica persica) | F: Digitaria ciliaris, herbicidal effect grade (Digitaria ciliaris [3]) | K: Lolium multiflorum Lam., herbicidal effect grade (Lolium multiflorum Lam. [4]) | O: Chenopodium album, herbicidal effect grade (Chenopodium album [5]) | M: Abutilon theophrasti, herbicidal effect (criteria of Test Example 1) (Abutilon theophrasti) | Effect grade on crop, a: transplanted rice plant (transplanted rice plant) | Q: Galium spurium, herbicidal effect grade (Galium spurium) | O: Chenopodium album, herbicidal effect (criteria of Test Example 1) (Chenopodium album [6]) | herbicidal effect on H (Echinochloa crus-galli var. crus-galli), grade 0-5 [7] | effect on crop b (directly sowed rice plant), grade 0-5 [8] | G: Setaria viridis, herbicidal effect grade (Setaria viridis) | f: beet, effect on crop (criteria of Test Example 1) (beet) | other results
1 | CON=C(C)CC1CC(OC(=O)CCCC(C)=O)=C(c2c(C)cc(-c3ccc(Cl)cc3)cc2C)C1=O (stereo not drawn) [6-080] | 0 (Herbicidal ratio of 5% or lower (almost no effect)) | 5 (Herbicidal ratio of 90% or more (almost completely withered)) | 5 (Herbicidal ratio of 90% or more (almost completely withered)) | 1 (Herbicidal ratio of 5% or higher and lower than 20%) | 0 (Herbicidal ratio of 5% or lower (almost no effect)) | 5 (Herbicidal ratio of 90% or more (almost completely withered)) | 0 (Herbicidal ratio of 5% or lower (almost no effect)) | 5 (Herbicidal ratio of 90% or more (almost completely withered)) | 5 (Herbicidal ratio of 90% or more (almost completely withered)) | 0 (Herbicidal ratio of 5% or lower (almost no effect)) | 4 (Herbicidal ratio of 70% or higher and lower than 90%) | 5 (Herbicidal ratio of 90% or more (almost completely withered)) | 0 (Herbicidal ratio of 5% or lower (almost no effect)) | 0 (Herbicidal ratio of 5% or lower (almost no effect)) | 5 (Herbicidal ratio of 90% or more (almost completely withered)) | 5 (Herbicidal ratio of 90% or more (almost completely withered)) | 5 (Herbicidal ratio of 90% or more (almost completely withered)) | 0 (Herbicidal ratio of 5% or lower (almost no effect)) | 
2 | CC(=O)CC1CC(O)=C(c2c(C)cc(-c3ccccn3)cc2C)C1=O (stereo not drawn) [7-012] | 3 (Herbicidal ratio of 40% or higher and lower than 70%) | 5 (Herbicidal ratio of 90% or more (almost completely withered)) | 3 (Herbicidal ratio of 40% or higher and lower than 70%) |  |  | 5 (Herbicidal ratio of 90% or more (almost completely withered)) |  |  |  |  | 0 (Herbicidal ratio of 5% or lower (almost no effect)) | 1 (Herbicidal ratio of 5% or higher and lower than 20%) |  | 3 (Herbicidal ratio of 40% or higher and lower than 70%) | 5 (Herbicidal ratio of 90% or more (almost completely withered)) | 5 (Herbicidal ratio of 90% or more (almost completely withered)) |  | 0 (Herbicidal ratio of 5% or lower (almost no effect)) | Herbicidal effect grade, N: Amaranthus retroflexus (Amaranthus retroflexus): 0 (Herbicidal ratio of 5% or lower (almost no effect)); Effect on crop grade, e: wheat (wheat): 0 (Herbicidal ratio of 5% or lower (almost no effect)); Herbicidal effect grade, R: Veronica persica (Veronica persica): 0 (Herbicidal ratio of 5% or lower (almost no effect)); Herbicidal effect grade, F: Digitaria ciliaris (Digitaria ciliaris [3]): 5 (Herbicidal ratio of 90% or more (almost completely withered)); Herbicidal effect grade, K: Lolium multiflorum Lam. (Lolium multiflorum Lam. [4]): 2 (Herbicidal ratio of 20% or higher and lower than 40%); Herbicidal effect grade, O: Chenopodium album (Chenopodium album [5]): 0 (Herbicidal ratio of 5% or lower (almost no effect)); Herbicidal effect grade, Q: Galium spurium (Galium spurium): 0 (Herbicidal ratio of 5% or lower (almost no effect)); Herbicidal effect grade, G: Setaria viridis (Setaria viridis): 5 (Herbicidal ratio of 90% or more (almost completely withered))
3 | CON=C(C)CC1CC(O)=C(c2c(C)cc(C(C)=NOC)cc2C)C1=O (stereo not drawn) [6-065] | 3 (Herbicidal ratio of 40% or higher and lower than 70%) | 5 (Herbicidal ratio of 90% or more (almost completely withered)) | 5 (Herbicidal ratio of 90% or more (almost completely withered)) | 4 (Herbicidal ratio of 70% or higher and lower than 90%) | 5 (Herbicidal ratio of 90% or more (almost completely withered)) | 5 (Herbicidal ratio of 90% or more (almost completely withered)) | 3 (Herbicidal ratio of 40% or higher and lower than 70%) | 5 (Herbicidal ratio of 90% or more (almost completely withered)) | 5 (Herbicidal ratio of 90% or more (almost completely withered)) | 3 (Herbicidal ratio of 40% or higher and lower than 70%) | 2 (Herbicidal ratio of 20% or higher and lower than 40%) | 4 (Herbicidal ratio of 70% or higher and lower than 90%) | 4 (Herbicidal ratio of 70% or higher and lower than 90%) | 1 (Herbicidal ratio of 5% or higher and lower than 20%) | 5 (Herbicidal ratio of 90% or more (almost completely withered)) | 5 (Herbicidal ratio of 90% or more (almost completely withered)) | 5 (Herbicidal ratio of 90% or more (almost completely withered)) | 3 (Herbicidal ratio of 40% or higher and lower than 70%) | 
